Residues, ends and D or L forms follow the SMILES beside them.
Assays:
[1] = biological target: T1, KPNA4 ARM Major (Homo sapiens, UniProt O00629); assay: FP displacement assay, KPNA4 ARM major pocket; format: binding; details: for Kd: major pocket probe FITC-MYC 5 nM, 50 mM sodium phosphate pH 7.4, room temperature, at least three technical replicates, read-out: KD values ± SEM
T1 construct: 60-487; GST (cleaved yes); made in house; host or cells: Escherichia coli BL21-Gold(DE3)
Description: (§1) FP experiments were performed as described previously (Kliche et al, [2021]). Shortly, in order to monitor the binding event, FITC‐labelled peptides were used (excitation 495 nm, emission: 535 nm) and the FP signal was recorded in mP on a SpectraMax iD5 Multi‐Mode Microplate Reader (Molecular Devices) by measuring the emitted light in two angels. The measurements were performed at room temperature and prepared in nonbinding black half area 96‐well microplates (Corning®; 50 μl/well). For measuring direct binding, that is saturation curves, a 1:1 dilution series of protein domain (25 μl/well) was generated in 50 mM sodium phosphate buffer pH 7.4 and the measurement performed with 5 nM FITC‐labelled peptide (25 μl/well). The buffer‐corrected values were subsequently plotted with PRISM and fitted to the quadratic equation (Gianni et al, [2005]).
(§2) The 1:1 dilution series in this experiment was performed with the unlabelled peptide in 50 mM sodium phosphate buffer pH 7.4, so that each well‐contained unlabelled peptide (25 μl) at a certain concentration and pre‐formed complex (25 μl). The KD values of this indirectly monitored binding event were calculated as described previously (Nikolovska‐Coleska et al, [2004]). All measurements were at least in technical triplicates as well as biological duplicates when indicated. An amplitude shift between repeat measurements in the displacement experiments was occasionally observed due to variations in the protein preparations. If that was the case, the “active” protein concentration was back‐calculated according to the quadratic equation from the saturation curves performed in parallel. By comparing the active protein concentrations in the complex between different protein preparations, the amplitude was normalised.

[2] = system: KPNA4 ARM; assay: Phosphomimetic ProP-PD selection, KPNA4 ARM; format: binding, human; details: phosphomimetic enrichment score of the wild-type/phosphomimetic (E) pair at the phosphosite, PM_HD2 phage selection; same score in the major and minor pocket; P-value in brackets not taken
[3] = biological target: T2, KPNA4 ARM minor (Homo sapiens, UniProt O00629); assay: FP displacement assay, KPNA4 ARM minor pocket; format: binding; details: for Kd: minor pocket probe FITC-NCOR2 5 nM, 50 mM sodium phosphate pH 7.4, room temperature, at least three technical replicates, read-out: KD values ± SEM
T2 construct: 60-487; GST (cleaved yes); made in house; host or cells: Escherichia coli BL21-Gold(DE3)
T2 sequence (O00629 60-487): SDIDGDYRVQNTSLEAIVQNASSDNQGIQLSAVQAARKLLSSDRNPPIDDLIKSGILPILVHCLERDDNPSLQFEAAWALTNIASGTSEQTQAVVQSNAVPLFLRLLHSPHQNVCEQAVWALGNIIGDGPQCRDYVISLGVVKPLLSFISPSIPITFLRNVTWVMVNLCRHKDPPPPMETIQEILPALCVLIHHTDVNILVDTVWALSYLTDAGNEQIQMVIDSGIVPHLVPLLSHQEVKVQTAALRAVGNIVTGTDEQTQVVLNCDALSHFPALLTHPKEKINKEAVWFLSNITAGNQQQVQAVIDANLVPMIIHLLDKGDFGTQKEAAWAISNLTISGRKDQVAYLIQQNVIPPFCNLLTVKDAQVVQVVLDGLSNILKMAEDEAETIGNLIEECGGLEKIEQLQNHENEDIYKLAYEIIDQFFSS
Description: as §1, §2

[4] = biological target: T3, GGA1 VHS (Homo sapiens, UniProt Q9UJY5); assay: FP displacement assay, GGA1 VHS; format: binding; details: FP displacement, probe FITC-IGF2R 5 nM, 50 mM sodium phosphate pH 7.4, room temperature; at least three technical replicates; read-out: KD values ± SEM
T3 construct: GGA1_VHS__Q9UJY5_1_157; GST (cleaved yes); made in house; host or cells: Escherichia coli BL21-Gold(DE3)
T3 sequence (Q9UJY5 1-157): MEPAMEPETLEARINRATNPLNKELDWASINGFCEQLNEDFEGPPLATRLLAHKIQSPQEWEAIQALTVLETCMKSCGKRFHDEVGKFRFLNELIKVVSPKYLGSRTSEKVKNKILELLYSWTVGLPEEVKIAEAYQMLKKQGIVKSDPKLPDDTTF
Description: as §1, §2

[5] = biological target: T3, GGA1 VHS; assay: Phosphomimetic ProP-PD selection, GGA1 VHS; details: phosphomimetic enrichment score of the wild-type/phosphomimetic (E) pair at the phosphosite, PM_HD2 phage selection; positive = phosphomimetic enhances binding; P-value in brackets not taken
Description: Selections using the PM_HD2 phage library were performed as described previously with minor modification to the original protocol. The corresponding tag protein (either GST or MBP) was first used during negative selections. Selections were run for 4 days. • Bait and tag proteins (10–15 μg in 100 μl PBS) were immobilised in 96‐well MaxiSorb plate (NUNC) o.n. at 4°C. • Escherichia coli OmniMax bacteria were grown in 2YT medium supplemented with tetracycline (100 μg/ml) at 37°C and 200 rpm. • Plates with immobilised bait/tag proteins were blocked with 0.5% BSA in PBS for 1 h at 4°C. • Phage library (10 μl/well) was prepared by diluting 10× with PBS and adding one‐fourth of the volume of PEG/NaCl. For phage precipitation, prepared library was incubated for 10 min on ice followed by centrifugation for 10 min at 10,000 × g at 4°C. […]
Based on the results from phage pool ELISAs, samples from selection Day 3 and 4 were selected for NGS, as described previously (Benz et al, [2022]). • Peptide coding regions were amplified and dual‐barcoded by PCR. […] From the columns, samples were eluted with 30 μl TE (10 mM Tris–HCl, 1 mM EDTA. pH 7.5) buffer and quantified with Quant‐iT PicoGreen dsDNA Assay Kit. • Samples were sequenced on MiSeq (MSC 2.5.0.5/RTA 1.18.54) with a 151 nt (Read1) setup using “Version3” chemistry. […]

[6] = biological target: T3, GGA1 VHS; assay: ITC, GGA1 VHS; format: binding; design: Ka: unit not given beside the values

T1 sequence (O00629 60-487): as the sequence (O00629 60-487) above

Row | Kd [1] [µM] | Kd [3] [µM] | Kd [4] [µM] | PES [5] | Compound | PES [2] | other results
1 | 5.3 ± 0.4 | 41 ± 2 | – | – | CC(=O)N[C@@H](CC(=O)O)C(=O)N[C@H](C(=O)N[C@@H](CCC(=O)O)C(=O)N[C@@H](Cc1c[nH]cn1)C(=O)NCC(=O)NCC(=O)N[C@@H](CCCCN)C(=O)N[C@@H](CCCNC(=N)N)C(=O)N[C@@H](CCC(=O)O)C(=O)N[C@@H](CCCNC(=N)N)C(=O)N[C@@H](CC(C)C)C(=O)N[C@H](C(=O)N1CCC[C@H]1C(=O)N[C@H](C(=O)N[C@@H](CO)C(=O)N[C@@H](Cc1ccc(O)cc1)C(N)=O)C(C)C)[C@@H](C)O)C(C)C [SQSTM1_258–272 E] (Ac-DVEHGGKRERLTPVSY-NH2) | −3 (0.0096) | –
2 | – | – | 1000 | 4.9 (0.009) | CC[C@H](C)[C@H](NC(=O)[C@H](CC(=O)O)NC(=O)[C@H](CC(=O)O)NC(=O)[C@H](CO)NC(=O)[C@@H](NC(=O)[C@@H]1CCCN1C(=O)[C@H](CO)NC(=O)[C@H](CCCCN)NC(=O)[C@H](Cc1ccc(O)cc1)NC(C)=O)[C@@H](C)O)C(=O)N[C@@H](CCC(=O)O)C(=O)N[C@@H](CC(C)C)C(=O)N[C@@H](CC(C)C)C(=O)N[C@@H](Cc1c[nH]cn1)C(=O)N[C@@H](CCC(=O)O)C(=O)N[C@@H](CO)C(=O)N[C@@H](CCC(N)=O)C(=O)N[C@@H](CO)C(N)=O [RNF11_6–21 E] (Ac-YKSPTSDDIELLHESQS-NH2) | – | Kd ([6]; ITC (iTC200), 50 mM sodium phosphate pH 7.4, 1 mM DTT, average of the runs, technical duplicates): 101 µM; Ka ([6]; ITC single run: date 200220, injection 1): 10600; Ka ([6]; ITC single run: date 200220, injection 2): 9350

Second part, the compound before the results:

Row | Compound | Kd [1] [µM] | Kd [3] [µM] | Kd [4] [µM] | PES [5] | PES [2] | other results
3 | CC(=O)N[C@@H](CC(N)=O)C(=O)N[C@@H](Cc1ccc(O)cc1)C(=O)N[C@@H](C)C(=O)N1CCC[C@H]1C(=O)N1CCC[C@H]1C(=O)N[C@H](C(=O)N[C@@H](CCCCN)C(=O)N[C@@H](CCCNC(=N)N)C(=O)N[C@@H](CCC(=O)O)C(=O)N[C@@H](CCCNC(=N)N)C(=O)N[C@@H](CCC(=O)O)C(=O)N[C@@H](CO)C(=O)N[C@@H](CO)C(=O)N[C@@H](CC(C)C)C(=O)N[C@H](C(=O)N[C@@H](CCC(N)=O)C(N)=O)[C@@H](C)O)C(C)C [RANBP3_114–129 E (p + 5)] (Ac-NYAPPVKRERESSLTQ-NH2) | 0.8 ± 0.03 | 61 ± 2 | – | – | −7 (0.00012) | IC50 ([1]; Fig 3E, KPNA4 ARM major, technical triplicates, read-out: IC50 values of displacement curves, with SEM): 7.1 ± 0.5 µM; IC50 ([3]; Fig 3E, KPNA4 ARM minor, technical triplicates, read-out: IC50 values of displacement curves, with SEM): 290 ± 16 µM
4 | CC(=O)N[C@@H](CC(=O)O)C(=O)N[C@@H](CC(C)C)C(=O)N[C@@H](CC(C)C)C(=O)N[C@@H](CCC(=O)O)C(=O)N[C@@H](CO)C(=O)N1CCC[C@H]1C(=O)N[C@@H](CC(=O)O)C(=O)N[C@H](C(=O)NCC(=O)N[C@@H](CC(C)C)C(=O)N[C@@H](CC(C)C)C(=O)N[C@@H](CCCCN)C(=O)N[C@@H](CC(C)C)C(=O)N[C@@H](C)C(=O)N[C@@H](CO)C(=O)N[C@@H](Cc1ccc(O)cc1)C(N)=O)C(C)C [JUN59–73 E] (Ac-DLLESPDVGLLKLASY-NH2) | – | – | 450 ± 50 | 3.6 (0.023) | – | –
5 | CC(=O)NCC(=O)N[C@@H](C)C(=O)N[C@@H](CCC(=O)O)C(=O)N1CCC[C@H]1C(=O)N[C@@H](C)C(=O)N[C@@H](CC(C)C)C(=O)N[C@@H](CCCCN)C(=O)N[C@@H](CCCNC(=N)N)C(=O)N[C@@H](CO)C(=O)N[C@@H](Cc1c[nH]cn1)C(=O)N[C@@H](CO)C(=O)N[C@@H](CC(=O)O)C(=O)N[C@@H](CO)C(=O)N[C@@H](Cc1ccc(O)cc1)C(N)=O [CDC25A114–125 E] (Ac-GAEPALKRSHSDSY-NH2) | 0.75 ± 0.03 | 2.3 ± 0.3 | – | – | 10 (0.000006) | –
6 | CC(=O)N[C@@H](CCC(=O)O)C(=O)N[C@H](C(=O)N[C@@H](Cc1ccc(O)cc1)C(=O)N[C@@H](Cc1ccc(O)cc1)C(=O)N[C@@H](CC(C)C)C(=O)N[C@@H](CO)C(=O)N[C@@H](CC(=O)O)C(=O)N[C@@H](CCC(=O)O)C(=O)N1CCC[C@H]1C(=O)N[C@@H](CC(C)C)C(=O)N[C@@H](CC(C)C)C(=O)NCC(=O)N1CCC[C@H]1C(=O)N1CCC[C@H]1C(=O)N[C@H](C(=O)NCC(N)=O)C(C)C)[C@@H](C)O [GTSE1_145–160 E] (Ac-ETYYLSDEPLLGPPVG-NH2) | – | – | 199 ± 4 | 9 (0.00012) | – | –

From article PMC10333884, “Large‐scale phosphomimetic screening identifies phospho‐modulated motif‐based protein interactions” (Molecular Systems Biology, 2023)
